Data: patent publication US12360106B2, “Photochromic xanthene fluorophores and their utility in live-cell imaging beyond the diffraction limit” (HOWARD HUGHES MEDICAL INSTITUTE, priority 2017, dated 2025)

Assay: water solubility (comparative statement)
Format: physicochemical
Conditions: compared to PC-JF549-NHS

With `COCCOCCOCCOCCNC(=O)c1cc2ccc(N3C(=O)c4ccc(C(=O)ON5C(=O)CCC5=O)cc4C34c3ccc(N5CCC5)cc3[Si](C)(C)c3cc(N5CCC5)ccc34)cc2oc1=O` [PC-JF646-PEG-NHS, 2,5-dioxopyrrolidin-1-yl 2′-(3-((2,5,8,11-tetraoxatridecan-13-yl)carbamoyl)-2-oxo-2H-chromen-7-yl)-3,7-di(azetidin-1-yl)-5,5-dimethyl-3′-oxo-5H-spiro[dibenzo[b,e]siline-10,1′-isoindoline]-6′-carboxylate] the water solubility was “better water solubility”.
